Where a name gives a salt, the structure may show the parent alone.
Legend:
yeast mixture 1 = assay: Repeated-inoculation microbiological stress test of all-purpose cleaner, yeast mixture 1; type: cell-based; set-up: key to Yeast growth after inoculation: 0: No growth; Minimal growth, 1 to 10 colonies visible over the entire streak; 2: Light growth, maximum 100 colonies; Moderate growth, maximum 300 to 400 colonies; Uniform growth, >400 colonies, single colonies still clearly recognizable; 5: Heavy growth, too many colonies to count, but no growth over the entire streak; 6: Full growth, barely any single colonies still apparent, growth over the entire streak; conditions: for Yeast growth after inoculation: All-purpose cleaner, 6 d
Source text: (§1) The tested cleaning composition was an all-purpose cleaner without preservatives and having a pH of 7.7, the skin lotion was a body lotion without preservatives and having a pH of 7.1, and the shampoo was a hair shampoo without preservatives and having a pH of 6.9.
(§2) The cleaning composition was admixed with particular concentrations of guanidine carbonate and guanidine hydrochloride and homogenized. The body lotion and the hair shampoo were each admixed and homogenized with guanidine hydrochloride and with octane-1,2-diol alone or in combination.
(§3) The batches of the products thus obtained were inoculated repeatedly at particular intervals with bacteria mixtures or yeast mixtures that are used as standard for microbiological stress tests of industrial products or cosmetic products (bacteria mixture 1 and 2, yeast mixture 1 and 2).
(§4) The inoculum was added to the respective sample in each inoculation at 2% (v/w) as a fresh cell suspension in a physiological saline solution (0.9% NaCl). The cell count of the inoculum added was 10^8-10^9/ml for the bacteria mixtures, 10^7-10^8/ml for the yeast mixtures, consisting in equal parts of the individual bacteria strains or yeast strains.
(§5) The cell suspension of the yeast mixtures was produced by growing the yeast strains on Sabouraud glucose-agar at 25° C. for 48 hours and washing down the cell lawn in each case with physiological saline solution (0.9% NaCl). Further steps for establishment of a cell count of the inoculum suspension of 10^7/ml to 10^8/ml were effected analogously to the production of the bacteria suspensions.
(§6) In the examples, the samples were inoculated three times at weekly intervals with the respective cell suspensions (2% v/w) and the evolution of the bacteria or yeasts was followed by a semiquantitative evaluation method. After each inoculation, microbial infestation in the samples was evaluated in each case after incubation at 30° C. for 6 to 7 days. For this purpose, an aliquot was taken from each sample after homogenization using a sterile plastic inoculation loop (10 μl) and streaked evenly on agar plates (bacteria mixture 1 and 2 on tryptic soy agar, bacteria mixture 3 on DSMZ 31 alkaline nutrient agar, Sabouraud glucose-agar in the case of yeasts). The streaked agar plates were then incubated at 30° C. for 48 hours (bacteria mixture 1 and 2) or 5 to 7 days (bacteria mixture 3), or at 25° C. for 72 hours (yeast mixtures). After incubation, the bacteria colonies or yeast colonies that have grown on the agar plates were visually evaluated and quantified according to the following scheme:
Inoculation 2% (w/v) with yeast mixture 1, cell count 10^8/ml

yeast mixture 2 [1] = assay: Repeated-inoculation microbiological stress test of body lotion, yeast mixture 2; type: cell-based, Candida albicans, Candida parapsilosis; set-up: key to Yeast growth after inoculation: 0: No growth; Minimal growth, 1 to 10 colonies visible over the entire streak; 2: Light growth, maximum 100 colonies; Moderate growth, maximum 300 to 400 colonies; Uniform growth, >400 colonies, single colonies still clearly recognizable; 5: Heavy growth, too many colonies to count, but no growth over the entire streak; 6: Full growth, barely any single colonies still apparent, growth over the entire streak; conditions: for Yeast growth after inoculation: Body lotion, 6 d
Source text: as §1, §2, §3, §4, §5, §6
(§7) Inoculation 2% (w/v) with yeast mixture 2, cell count 10^7/ml

bacteria mixture 3 = assay: Repeated-inoculation microbiological stress test of body lotion, bacteria mixture 3; type: cell-based, Nesterenkonia spec.; set-up: key to Bacterial growth after inoculation: 0: No growth; Minimal growth, 1 to 10 colonies visible over the entire streak; 2: Light growth, maximum 100 colonies; Moderate growth, maximum 300 to 400 colonies; Uniform growth, >400 colonies, single colonies still clearly recognizable; 5: Heavy growth, too many colonies to count, but no growth over the entire streak; 6: Full growth, barely any single colonies still apparent, growth over the entire streak; conditions: for Bacterial growth after inoculation: Body lotion, 6 d
Source text: as §1, §2, §3, §4
The cell suspension of the bacteria mixtures was produced by growing the individual bacteria at 30° C. for 24 h in liquid culture on a shaker. The medium used to grow the bacteria from bacteria mixtures 1 and 2 was Müller-Hinton liquid medium. The bacteria from bacteria mixture 3 were grown in Müller-Hinton liquid medium that had been adjusted to pH 9.5 to 9.7 with an alkaline buffer solution beforehand. After growing, the individual liquid cultures were centrifuged, and the cells were resuspended in physiological saline solution. In order to adjust the mixtures to a total cell count of 10^8 to 10^9/ml, the individual bacteria suspensions, if necessary, were diluted accordingly before being combined with saline solution. The cell count of the inoculum suspensions was determined in each case by chamber counting.
as §6
Inoculation 2% (w/v) with bacteria mixture 3, cell count 10^8/ml

yeast mixture 2 [2] = assay: Repeated-inoculation microbiological stress test of shampoo, yeast mixture 2; type: cell-based, Candida albicans, Candida parapsilosis; set-up: key to Yeast growth after inoculation: 0: No growth; Minimal growth, 1 to 10 colonies visible over the entire streak; 2: Light growth, maximum 100 colonies; Moderate growth, maximum 300 to 400 colonies; Uniform growth, >400 colonies, single colonies still clearly recognizable; 5: Heavy growth, too many colonies to count, but no growth over the entire streak; 6: Full growth, barely any single colonies still apparent, growth over the entire streak; conditions: for Yeast growth after inoculation: Shampoo, 6 d
Source text: as §1, §2, §3, §4, §5, §6, §7

[3] = +10000 ppm guanidine hydrochloride (6180 ppm guanidine) pH 6.8, 1. inoculation
[4] = +10000 ppm guanidine hydrochloride (6180 ppm guanidine) pH 6.8, 2. inoculation
[5] = +10000 ppm guanidine hydrochloride (6180 ppm guanidine) pH 6.8, 3. inoculation
[6] = +2500 ppm octanediol pH 7.0, 1. inoculation
[7] = +2500 ppm octanediol pH 7.0, 2. inoculation
[8] = +2500 ppm octanediol pH 7.0, 3. inoculation
[9] = +5000 ppm octanediol pH 7.0, 1. inoculation
[10] = +5000 ppm octanediol pH 7.0, 2. inoculation
[11] = +5000 ppm octanediol pH 7.0, 3. inoculation

Structure (SMILES): N=C(N)N [guanidine hydrochloride]
- Yeast growth after inoculation (yeast mixture 1; +1000 ppm guanidine hydrochloride (618 ppm guanidine) pH 7.7, 1. inoculation): 5
- Yeast growth after inoculation (yeast mixture 1; +1000 ppm guanidine hydrochloride (618 ppm guanidine) pH 7.7, 2. inoculation): 6
- Yeast growth after inoculation (yeast mixture 1; +1000 ppm guanidine hydrochloride (618 ppm guanidine) pH 7.7, 3. inoculation): 6
- Yeast growth after inoculation (yeast mixture 1; +2500 ppm guanidine hydrochloride (1545 ppm guanidine) pH 7.7, 1. inoculation): 1 (Minimal growth, 1 to 10 colonies visible over the entire streak)
- Yeast growth after inoculation (yeast mixture 1; +2500 ppm guanidine hydrochloride (1545 ppm guanidine) pH 7.7, 2. inoculation): 1 (Minimal growth, 1 to 10 colonies visible over the entire streak)
- Yeast growth after inoculation (yeast mixture 1; +2500 ppm guanidine hydrochloride (1545 ppm guanidine) pH 7.7, 3. inoculation): 1 (Minimal growth, 1 to 10 colonies visible over the entire streak)
- Yeast growth after inoculation (yeast mixture 1; +5000 ppm guanidine hydrochloride (3090 ppm guanidine) pH 7.6, 1. inoculation): 0
- Yeast growth after inoculation (yeast mixture 1; +5000 ppm guanidine hydrochloride (3090 ppm guanidine) pH 7.6, 2. inoculation): 0
- Yeast growth after inoculation (yeast mixture 1; +5000 ppm guanidine hydrochloride (3090 ppm guanidine) pH 7.6, 3. inoculation): 1 (Minimal growth, 1 to 10 colonies visible over the entire streak)
- stability of the all-purpose cleaner to microbial infestation by yeasts (yeast mixture 1; addition of 1516 ppm of guanidine in the form of guanidine hydrochloride at pH 7.7): distinct improvement in stability
- Yeast growth after inoculation (yeast mixture 2 [1]; [3]): 5
- Yeast growth after inoculation (yeast mixture 2 [1]; [4]): 6
- Yeast growth after inoculation (yeast mixture 2 [1]; [5]): 6
- stability of the body lotion to microbial infestation by yeasts (yeast mixture 2 [1]; addition of 4553 ppm of guanidine in the form of guanidine hydrochloride at pH 6.9): distinct improvement in stability
- Bacterial growth after inoculation (bacteria mixture 3; [3]): 6
- Bacterial growth after inoculation (bacteria mixture 3; [4]): 6
- Bacterial growth after inoculation (bacteria mixture 3; [5]): 6
- stability of the body lotion to microbial infestation by bacteria (bacteria mixture 3; addition of 3035 ppm of guanidine in the form of guanidine hydrochloride at pH 7.0): distinct improvement in stability
- Yeast growth after inoculation (yeast mixture 2 [2]; +10000 ppm guanidine hydrochloride (6070 ppm guanidine) pH 6.8, 1. inoculation): 4 (Uniform growth, >400 colonies, single colonies still clearly recognizable)
- Yeast growth after inoculation (yeast mixture 2 [2]; +10000 ppm guanidine hydrochloride (6070 ppm guanidine) pH 6.8, 2. inoculation): 6
- Yeast growth after inoculation (yeast mixture 2 [2]; +10000 ppm guanidine hydrochloride (6070 ppm guanidine) pH 6.8, 3. inoculation): 6
- stability of the shampoo to microbial infestation by yeasts (yeast mixture 2 [2]; table 6, addition of 4553 ppm of guanidine in the form of guanidine hydrochloride at pH 6.9): distinct improvement in stability

Structure (SMILES): CCCCCCC(O)CO (stereo not shown) [octanediol, octane-1,2-diol]
- Yeast growth after inoculation (yeast mixture 2 [1]; [6]): 5
- Yeast growth after inoculation (yeast mixture 2 [1]; [7]): 6
- Yeast growth after inoculation (yeast mixture 2 [1]; [8]): 6
- Yeast growth after inoculation (yeast mixture 2 [1]; [9]): 3 (Moderate growth, maximum 300 to 400 colonies)
- Yeast growth after inoculation (yeast mixture 2 [1]; [10]): 3 (Moderate growth, maximum 300 to 400 colonies)
- Yeast growth after inoculation (yeast mixture 2 [1]; [11]): 2 (Light growth, maximum 100 colonies)
- Bacterial growth after inoculation (bacteria mixture 3; [6]): 4 (Uniform growth, >400 colonies, single colonies still clearly recognizable)
- Bacterial growth after inoculation (bacteria mixture 3; [7]): 6
- Bacterial growth after inoculation (bacteria mixture 3; [8]): 6
- Bacterial growth after inoculation (bacteria mixture 3; [9]): 1 (Minimal growth, 1 to 10 colonies visible over the entire streak)
- Bacterial growth after inoculation (bacteria mixture 3; [10]): 3 (Moderate growth, maximum 300 to 400 colonies)
- Bacterial growth after inoculation (bacteria mixture 3; [11]): 3 (Moderate growth, maximum 300 to 400 colonies)
- Yeast growth after inoculation (yeast mixture 2 [2]; +2500 ppm octanediol pH 6.9, 1. inoculation): 4 (Uniform growth, >400 colonies, single colonies still clearly recognizable)
- Yeast growth after inoculation (yeast mixture 2 [2]; +2500 ppm octanediol pH 6.9, 2. inoculation): 5
- Yeast growth after inoculation (yeast mixture 2 [2]; +2500 ppm octanediol pH 6.9, 3. inoculation): 6
- Yeast growth after inoculation (yeast mixture 2 [2]; +5000 ppm octanediol pH 6.9, 1. inoculation): 1 (Minimal growth, 1 to 10 colonies visible over the entire streak)
- Yeast growth after inoculation (yeast mixture 2 [2]; +5000 ppm octanediol pH 6.9, 2. inoculation): 2 (Light growth, maximum 100 colonies)
- Yeast growth after inoculation (yeast mixture 2 [2]; +5000 ppm octanediol pH 6.9, 3. inoculation): 2 (Light growth, maximum 100 colonies)

Source: patent US20260263340A1, “Cosmetic Products and Cleaning Products Stabilized Against Microbial Attack” (Thor GmbH, priority 2023, published 2026)
